Measurements as given in patent US20240368164A1, “PURINE NUCLEOSIDES, THEIR INTERMEDIATES, AND METHODS OF PREPARATION THEREOF” (Astrocyle Pharmaceuticals, Inc., priority 2021, published 2024).

Assays:
[1] = Nonspecific brain tissue binding (free fraction); format: in vitro ADME, mouse
Description: (§1) Example 3 of U.S. Pat. No. 9,789,131, which is incorporated herein by reference, describes assays for determining the plasma and brain free fraction of certain compounds such as I-1. Compounds described herein may be evaluated using such assays or similar variants thereof.

[2] = Plasma protein binding (free fraction); format: in vitro ADME, mouse
Description: as §1

[3] = test system: photothrombosis-induced stroke in mice; test: Mouse photothrombotic stroke model; format: in vivo
Experimental: Photothrombosis-induced Stroke: Photothrombosis is performed as described in Zheng et al 2010 (PloS One 5 (12): e14401). In brief, Rose Bengal is a fluorescent dye that when injected into the vasculature and excited, generates singlet oxygen that damages the endothelial wall and induces a local thrombosis (clot). Using this technique, mice are given a 0.1 mL tail-vein injection of sterilized Rose Bengal (RB, Sigma, U.S.A.) in artificial cerebral spinal fluid (aCSF). The RB concentration is 20 mg/mL. A cortical region is centered in the imaging field and illuminated with a green laser (543 nm, 5 mW) using a 0.8-NA 40× water-immersion objective (Nikon, Tokyo). The clot formation is monitored in real time until the targeted vessel or downstream capillaries are firmly occluded. Stable clots are subsequently identified by a non-fluorescent vessel segmentation ending with highly fluorescent regions. […] Treatments, at doses such as 0.5 μmol/kg are introduced via intraperitoneal injections (i.p.). For experiments with A3 receptor antagonist MRS1523, mice are administered intraperitoneal injections (2 mg/kg) at the 0 and 2 hour timepoints to ensure receptor antagonism throughout the course of the study.
Animals and Photothrombosis-induced Stroke: Stroke is performed as described in Zheng et al 2010 (PloS One 5 (12): e14401). Female C57Bl/6 mice (4-6 months) are used in this study. From the methods of this manuscript: Mice are anesthetized at 3% isoflurane with 100% oxygen and subsequently maintained at 1% isoflurane through a nosecone. Depth of anesthesia is monitored and regulated according to vital signs, pinch withdrawal and eye blinks. Body temperature is maintained at 37° C. by a feedback-controlled heating pad (Gaymar T/Pump). Vital signs including oxygen saturation, respiratory rate, and heart rate are continuously monitored by using the MouseOx system (STARR Life Sciences). […]
Post photothrombotic infarction evaluation. The size of cerebral infarcts is evaluated using 2,3,5-Triphenyltetrazolium chloride (TTC) staining as described in Zheng et al 2010 (PloS One 5 (12): e14401). […]

[4] = test system: traumatic brain injury (TBI) in mice; test: Mouse traumatic brain injury (TBI) model; format: in vivo
Experimental: Animals and traumatic brain injury (TBI): TBI is performed with a controlled closed skull injury model as described in Talley-Watts et al. 2012 (J. Neurotrauma 30, 55-66). Following the method described therein, a pneumatic impact device is used to generate a moderate TBI leaving the skull and dura matter intact. To achieve this, C57BL/6 mice are anesthetized with isoflurane (3% induction, 1% maintenance) in 100% oxygen. A body temperature of 37° C. is maintained using a temperature-controlled heated surgical table. A small midline incision is made on the scalp using aseptic surgical techniques. A 5 mm stainless steel disc is positioned on the skull and fixed using superglue on the right parietal bone between bregma and lamda over the somatosensory cortex. The mouse is then positioned on a stage directly under the pneumatic impact tip. […] Mice are placed in a Thermo-Intensive Care Unit (Braintree Scientific model FV-1; 37° C.; 27% O2) and monitored until fully awake and moving freely. […]
Western Blot Analysis for GFAP: At selected survival times, mice are anesthetized under isoflurane and sacrificed. […] The homogenate is transferred to a 2 mL tube and centrifuged at 1000 g for 10 minutes at 4° C. and the supernatant is collected and analyzed. Protein concentration is determined by the BCA assay using a 1:50 dilution. […]

## CSc1nc(N)c2ncn([C@H]3[C@H](O)[C@H](O)[C@]4(CO)C[C@H]34)c2n1 [Compound I-1, (1R,2R,3S,4R,5S)-4-(6-Amino-2-(methylthio)-9H-purin-9-yl)-1-(hydroxymethyl)bicyclo[3.1.0]hexane-2,3-diol]
[1]; brain tissue
  free (unbound) fraction in brain: 0.13
[1]; mouse models, from unbound fractions
  fraction available to interact with the A3 receptor, relative to Cl-IB-IMECA: at least 1000 fold
[2]
  free (unbound) fraction in plasma: 0.74
[3]; mouse photothrombotic stroke and TBI models, with MRS1523
  efficacy of I-1 in presence of A3 antagonist MRS1523: blocked
[3]; mouse, stroke
  efficacy in mouse photothrombotic stroke model: significant efficacy
[4]
  efficacy in mouse TBI model: significant efficacy
